According to patent US7138361B2, “Herbicidal heterocycles” (E. I. du Pont de Nemours and Company, priority 2000, dated 2006):

What was measured:
Type in all cases: in vivo
[1] = tested on: lambsquarters (Chenopodium album); assay: Test B preemergence
In short: (§1)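 Post-treatment, species sat 13–15 days under greenhouse conditions before visual scoring against controls, 0 (no effect) through 100 (complete control). Application preemergence to sown seeds or postemergence at 1- to 4-leaf stage, using a non-phytotoxic solvent/surfactant formulation.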

[2] = tested on: Surinam grass (Brachiaria decumbens); assay: Test B preemergence
In short: as §1

[3] = tested on: morning glory (Ipomoea hederacea); assay: Test B preemergence
In short: as §1

[4] = tested on: rice (Oryza saliva); assay: Test B preemergence
In short: as §1

[5] = tested on: velvetleaf (Abutilon theophrasti); assay: Test B preemergence
In short: as §1

[6] = tested on: barnyardgrass (Echinochloa crus-galli); assay: Test B preemergence
In short: as §1

[7] = tested on: crabgrass (Digitaria sanguinalis); assay: Test B preemergence
In short: as §1

[8] = tested on: pigweed (Amaranthus retroflexus); assay: Test B preemergence
In short: as §1

[9] = tested on: cocklebur (Xanthium strumarium); assay: Test B preemergence
In short: as §1

[10] = tested on: giant foxtail (Setaria faberii); assay: Test B preemergence
In short: as §1

[11] = tested on: corn (Zea mays); assay: Test B preemergence
In short: as §1

[12] = tested on: lambsquarters (Chenopodium album); assay: Test C preemergence; details: for Plant response rating (0 to 100), Lambsquarters: Rate 500 g/ha, visual evaluation after 12 to 14 days
In short: (§2)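 Formulation: non-phytotoxic solvent mix incl. surfactant. Pre: applied right after planting. Post: 1–4-leaf seedlings. Read: visual 0–100, day 12–14, greenhouse.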

[13] = tested on: Surinam grass (Brachiaria decumbens); assay: Test C preemergence; details: for Plant response rating (0 to 100), Surinam grass: visual evaluation after 12 to 14 days
In short: as §2

[14] = tested on: goosegrass (Eleusine indica); assay: Test C preemergence; details: for Plant response rating (0 to 100), Goosegrass: visual evaluation after 12 to 14 days
In short: as §2

[15] = tested on: common ragweed (Ambrosia elatior); assay: Test C preemergence; details: for Plant response rating (0 to 100), Ragweed, Common: Rate 500 g/ha, visual evaluation after 12 to 14 days
In short: as §2

[16] = tested on: woolly cupgrass (Eriochloa villosa); assay: Test C preemergence; details: for Plant response rating (0 to 100), Cupgrass, Woolly: visual evaluation after 12 to 14 days
In short: as §2

[17] = tested on: crabgrass (Digitaria sanguinalis); assay: Test C preemergence; details: for Plant response rating (0 to 100), Crabgrass: visual evaluation after 12 to 14 days
In short: as §2

[18] = tested on: pigweed (Amaranthus retroflexus); assay: Test C preemergence; details: for Plant response rating (0 to 100), Pigweed: Rate 500 g/ha, visual evaluation after 12 to 14 days
In short: as §2

[19] = tested on: cocklebur (Xanthium strumarium); assay: Test C preemergence; details: for Plant response rating (0 to 100), Cocklebur: visual evaluation after 12 to 14 days
In short: as §2

[20] = tested on: Nightshade; assay: Test C preemergence
[21] = tested on: soybean (Glycine max); assay: Test C preemergence; details: for Plant response rating (0 to 100), Soybean: Rate 500 g/ha, visual evaluation after 12 to 14 days
In short: as §2

[22] = Preemergence, Rate 500 g/ha, scale 0 to 100, 0 no effect, 100 complete control
[23] = preemergence, Rate 125 g/ha, scale of 0 to 100 where 0 is no effect and 100 is complete control, 13 to 15 days
[24] = Rate 125 g/ha, scale 0 to 100, 0 no effect, 100 complete control
[25] = preemergence, Rate 62 g/ha, scale 0 to 100
[26] = preemergence, Rate 250 g/ha, scale 0 to 100, 0 no effect, 100 complete control
[27] = Rate 250 g/ha, scale 0 to 100, 0 no effect, 100 complete control
[28] = Rate 62 g/ha, scale 0 to 100, 0 no effect, 100 complete control

CCCC(C)c1ccn(C2SCN(c3cccc(C(F)(F)F)c3)C2=O)n1 (centres unmarked) [Compound 92]
Plant response rating, Lambsquarters [1, 22]: 100
Plant response rating, Lambsquarters [1, 23]: 100
Plant response rating, Surinam grass [2, 22]: 70
Plant response rating, Surinam grass [2, 23]: 0
Plant response rating, Morningglory [3, 22]: 0
Plant response rating, Morningglory [3, 23]: 0
Plant response rating, Rice [4, 22]: 0
Plant response rating, Rice [4, 23]: 0
Plant response rating, Velvetleaf [5, 22]: 0
Plant response rating, Velvetleaf [5, 23]: 0
Plant response rating, Barnyardgrass [6, 22]: 100
Plant response rating, Barnyardgrass [6, 23]: 30
Plant response rating, Crabgrass [7, 22]: 100
Plant response rating, Crabgrass [7, 23]: 50
Plant response rating, Pigweed [8, 22]: 100
Plant response rating, Pigweed [8, 23]: 80
Plant response rating, Cocklebur [9, 22]: 0
Plant response rating, Cocklebur [9, 23]: 0
Plant response rating, Foxtail, Giant [10, 22]: 100
Plant response rating, Foxtail, Giant [10, 23]: 50
Plant response rating, Corn [11, 22]: 0
Plant response rating, Corn [11, 23]: 0
Plant response rating, Lambsquarters [12, 24]: 100
Plant response rating, Lambsquarters [12, 25]: 80
Plant response rating (0 to 100), Lambsquarters ([12]; preemergence): 100
Plant response rating, Lambsquarters [12, 26]: 100
Plant response rating, Surinam grass [13, 24]: 0
Plant response rating, Surinam grass [13, 25]: 0
Plant response rating (0 to 100), Surinam grass ([13]; preemergence, Rate 500 g/ha): 35
Plant response rating, Surinam grass [13, 26]: 20
Plant response rating, Goosegrass [14, 24]: 75
Plant response rating, Goosegrass [14, 25]: 60
Plant response rating (0 to 100), Goosegrass ([14]; preemergence, Rate 500 g/ha): 100
Plant response rating, Goosegrass [14, 26]: 100
Plant response rating, Ragweed, Common [15, 24]: 0
Plant response rating, Ragweed, Common [15, 25]: 0
Plant response rating (0 to 100), Ragweed, Common ([15]; preemergence): 40
Plant response rating, Ragweed, Common [15, 26]: 0
Plant response rating, Cupgrass, Woolly [16, 24]: 10
Plant response rating, Cupgrass, Woolly [16, 25]: 0
Plant response rating (0 to 100), Cupgrass, Woolly ([16]; preemergence, Rate 500 g/ha): 50
Plant response rating, Cupgrass, Woolly [16, 26]: 50
Plant response rating, Crabgrass [17, 24]: 80
Plant response rating, Crabgrass [17, 25]: 60
Plant response rating (0 to 100), Crabgrass ([17]; preemergence, Rate 500 g/ha): 100
Plant response rating, Crabgrass [17, 26]: 100
Plant response rating, Pigweed [18, 24]: 0
Plant response rating, Pigweed [18, 25]: 0
Plant response rating (0 to 100), Pigweed ([18]; preemergence): 50
Plant response rating, Pigweed [18, 26]: 100
Plant response rating, Cocklebur [19, 24]: 0
Plant response rating, Cocklebur [19, 25]: 0
Plant response rating (0 to 100), Cocklebur ([19]; preemergence, Rate 500 g/ha): 20
Plant response rating, Cocklebur [19, 26]: 20
Plant response rating, Nightshade ([20]; Rate 62 g/ha, scale 0 to 100): 0
Plant response rating, Nightshade [20, 24]: 0
Plant response rating, Nightshade [20, 27]: 20
Plant response rating, Soybean [21, 24]: 0
Plant response rating, Soybean [21, 25]: 0
Plant response rating (0 to 100), Soybean ([21]; preemergence): 100
Plant response rating, Soybean [21, 26]: 30

CCC(C)c1ccn(C2CCN(c3ccc(C)c(OC)c3)C2=O)n1 (centres unmarked) [Compound 80]
Plant response rating, Lambsquarters [1, 22]: 100
Plant response rating, Lambsquarters [1, 23]: 100
Plant response rating, Surinam grass [2, 22]: 90
Plant response rating, Surinam grass [2, 23]: 80
Plant response rating, Morningglory [3, 22]: 100
Plant response rating, Morningglory [3, 23]: 60
Plant response rating, Rice [4, 22]: 90
Plant response rating, Rice [4, 23]: 60
Plant response rating, Velvetleaf [5, 22]: 70
Plant response rating, Velvetleaf [5, 23]: 0
Plant response rating, Barnyardgrass [6, 22]: 100
Plant response rating, Barnyardgrass [6, 23]: 0
Plant response rating, Crabgrass [7, 22]: 100
Plant response rating, Crabgrass [7, 23]: 100
Plant response rating, Pigweed [8, 22]: 100
Plant response rating, Pigweed [8, 23]: 100
Plant response rating, Cocklebur [9, 22]: 0
Plant response rating, Cocklebur [9, 23]: 0
Plant response rating, Foxtail, Giant [10, 22]: 100
Plant response rating, Foxtail, Giant [10, 23]: 100
Plant response rating, Corn [11, 22]: 20
Plant response rating, Corn [11, 23]: 0
Plant response rating, Lambsquarters [12, 28]: 100
Plant response rating, Lambsquarters [12, 24]: 100
Plant response rating (0 to 100), Lambsquarters ([12]; preemergence): 100
Plant response rating, Lambsquarters [12, 26]: 100
Plant response rating, Surinam grass [13, 28]: 20
Plant response rating, Surinam grass [13, 24]: 70
Plant response rating (0 to 100), Surinam grass ([13]; preemergence, Rate 250 g/ha): 100
Plant response rating (0 to 100), Surinam grass ([13]; preemergence, Rate 500 g/ha): 100
Plant response rating, Goosegrass [14, 28]: 100
Plant response rating, Goosegrass [14, 24]: 100
Plant response rating (0 to 100), Goosegrass ([14]; preemergence, Rate 250 g/ha): 100
Plant response rating (0 to 100), Goosegrass ([14]; preemergence, Rate 500 g/ha): 100
Plant response rating, Ragweed, Common [15, 24]: 100
Plant response rating (0 to 100), Ragweed, Common ([15]; preemergence): 100
Plant response rating, Ragweed, Common [15, 26]: 100
Plant response rating, Cupgrass, Woolly [16, 28]: 90
Plant response rating, Cupgrass, Woolly [16, 24]: 100
Plant response rating (0 to 100), Cupgrass, Woolly ([16]; preemergence, Rate 250 g/ha): 100
Plant response rating (0 to 100), Cupgrass, Woolly ([16]; preemergence, Rate 500 g/ha): 100
Plant response rating, Crabgrass [17, 28]: 100
Plant response rating, Crabgrass [17, 24]: 100
Plant response rating (0 to 100), Crabgrass ([17]; preemergence, Rate 250 g/ha): 100
Plant response rating (0 to 100), Crabgrass ([17]; preemergence, Rate 500 g/ha): 100
Plant response rating, Pigweed [18, 24]: 0
Plant response rating (0 to 100), Pigweed ([18]; preemergence): 40
Plant response rating, Pigweed [18, 26]: 0
Plant response rating, Cocklebur [19, 28]: 0
Plant response rating, Cocklebur [19, 24]: 50
Plant response rating (0 to 100), Cocklebur ([19]; preemergence, Rate 250 g/ha): 0
Plant response rating (0 to 100), Cocklebur ([19]; preemergence, Rate 500 g/ha): 100
Plant response rating, Nightshade [20, 28]: 90
Plant response rating, Nightshade [20, 24]: 100
Plant response rating, Nightshade [20, 27]: 100
Plant response rating, Soybean [21, 24]: 30
Plant response rating (0 to 100), Soybean ([21]; preemergence): 100
Plant response rating, Soybean [21, 26]: 50
